Laboratory results taken from patent US11866515B2, “Hemiasterlin derivatives for conjugation and therapy” (priority 2015, dated 2024).

B1: anti-CD74: anti-CD74 lead SP7919 without conjugation (antibody, V domains shown)
VH: QVQLVESGGGVVQPGRSLRLSCAASGFNFSDYGMHWVRQAPGKGLEWVAVIWYDGSISYYADSVKGRFTISRDNSKNTLYLQMNSLRAEDTAVYYCARGGTVEHGAVYGTDVWGQGTTVTVSS
VL: DIQMTQSPSSVSASVGDRVTITCRASQGIGSWLAWYQQKPGKAPKLLIYAADRLQSGVPSRFSGSGSGTDFTLTISSLQPEDFATYYCQQYHTYPLTFGGGTKVEIK
modifications: non-natural residues

How the values were obtained:
[1] = system: Target Negative Cell; assay: Tumor cell line assay Example 2b, target negative cells; type: cell-based; conditions: hemiasterlin derivatives, 120 hrs
Procedure: (§1) Cytotoxicity effects of test compounds on target positive and target negative cells were measured with a cell proliferation assay. Tumor cell lines were obtained from American Type Culture Collection (ATCC) and maintained in Ham's F-12: high glucose DMEM (50:50) glucose medium supplemented with 10% heat-inactivated fetal bovine serum, 1% Penicillin/Streptomcin and 2 mmol/L L-glutamax. Target positive and negative cells (a total of 625 cells per well) were seeded in a volume of 25 μL in a 384-well flat bottom white polystyrene plate. The cells were allowed to adhere overnight at 37° C. in a CO2 incubator. ADC variants were formulated at 2× concentration in DMEM/F12 medium and filtered through MultiScreen HTS 96-Well Filter Plates. Filter sterilized ADCs were serial diluted (1:3) and 25 μL of diluted samples were added into each treatment wells. Plates were then cultured at 37° C. in a CO2 incubator for 120 hrs. For cell viability measurement, 30 μL of Cell Titer-Glo® reagent (Promega Corp) was added into each well, and plates processed as per product instructions. Relative luminescence was measured on an ENVISION® plate reader (Perkin-Elmer; Waltham, Mass.). Relative luminescence readings were converted to % viability using untreated cells as controls. Data was fitted with non-linear regression analysis, using log(inhibitor) vs. response, variable slope, 4 parameter fit equation using GraphPad Prism (GraphPad v 5.00, Software; San Diego, Calif.). Data was expressed as % relative cell viability vs. dose of ADC in nM.

[2] = system: Target Positive Cell; assay: Tumor cell line assay Example 2b, target positive cells; type: cell-based; conditions: hemiasterlin derivatives, 120 hrs
Procedure: as §1

[3] = system: RPMI-6666 (HL); assay: Cell binding assay anti-CD74, RPMI-6666; conditions: B-Lymphoma
Procedure: (§2) Cell lines were maintained in RPMI, high glucose (Cellgro-Mediatech; Manassas, Va.) supplemented with 20% heat-inactivated fetal bovine serum (Hyclone; Thermo Scientific; Waltham, Mass.), 2 mM glutamax (Invitrogen; Carlsbad, Calif.) and 1× Pencillin/streptomycin (Cellgro-Mediatech; Manassas, Va.). Cells were harvested and re-suspended in FACS buffer (DPBS buffer supplemented with 1% bovine serum albumin). A total of 200,000 cells per well were incubated on ice with serial dilutions of anti-CD74 lead SP7919 without conjugation for 60 minutes. Cells were washed twice with ice-cold FACS buffer and incubated with 5 ug/ml Alexa 647 labeled donkey anti-human IgG antibody (Jackson Immune-Research) on ice for another 60 mins. Unstained cells and cells stained with secondary antibody alone were used as controls. Samples were then washed twice using FACS buffer and analyzed using a BD FACS Canto system. Mean fluorescence intensities were fitted using non-linear regression analysis with one site specific binding equation on GraphPad Prism. Data was expressed as geometric mean fluorescent intensity vs. antibody concentration in nM.

[4] = system: RPMI-8226 (MM); assay: Cell binding assay anti-CD74, RPMI-8226; conditions: Multiple Myeloma
Procedure: as §2

[5] = system: JVM-13 (CLL); assay: Cell binding assay anti-CD74, JVM-13; conditions: Leukemia
Procedure: as §2

[6] = system: BDCM (AML); assay: Cell binding assay anti-CD74, BDCM; conditions: Leukemia
Procedure: as §2

[7] = system: SU-DHL-6 (NHL); assay: Cell binding assay anti-CD74, SU-DHL-6; conditions: B-Lymphoma
Procedure: as §2

[8] = system: ARD (MM); assay: Cell binding assay anti-CD74, ARD; conditions: Multiple Myeloma
Procedure: as §2

[9] = system: SUP-B15 (ALL); assay: Cell binding assay anti-CD74, SUP-B15; conditions: Leukemia
Procedure: as §2

Molecule	IC50 [1] [nM]	Target Negative Cell Span (%) [1] [%]	IC50 [2] [nM]	Target Positive Cell Span (%) [2] [%]	further results
CN[C@H](C(=O)N[C@H](C(=O)N(C)[C@H](/C=C(\C)C(=O)O)C(C)C)C(C)(C)C)C(C)(C)c1cccc(NC(=O)OCc2ccc(NC(=O)[C@H](C)NC(=O)[C@@H](NC(=O)CCCCC(=O)N3Cc4ccccc4C#Cc4ccccc43)C(C)C)cc2)c1 [Compound 110a]	337	90	26	93	–
CN[C@H](C(=O)N[C@H](C(=O)N(C)[C@H](/C=C(\C)C(=O)O)C(C)C)C(C)(C)C)C(C)(C)c1cccc(NC(=O)OCc2ccc(NC(=O)[C@H](CCCNC(N)=O)NC(=O)[C@@H](NC(=O)CCC(=O)N3Cc4ccccc4C#Cc4ccccc43)C(C)C)cc2)c1 (single isomer, unassigned) [Compound 101a]	2010	110	222	93	–
CN[C@H](C(=O)NC(C(=O)N(C)[C@H](/C=C(\C)C(=O)O)C(C)C)C(C)(C)C)C(C)(C)c1cccc(NC(=O)OCc2cc(C)c(OC3OC(C(=O)O)C(O)C(O)C3O)c(NC(=O)CCNC(=O)CCCCC(=O)N3Cc4ccccc4C#Cc4ccccc43)c2)c1 (stereo partly drawn) [Compound 109a]	2440	95	661	92	–
CNC(C(=O)N[C@H](C(=O)N(C)[C@H](/C=C(\C)C(=O)O)C(C)C)C(C)(C)C)C(C)(C)c1cccc(NC(=O)[C@H](C)NC(=O)[C@@H](NC(=O)CCCCC(=O)N2Cc3ccccc3C#Cc3ccccc32)C(C)C)c1 (stereo partly drawn) [Compound 111a]	717	91	65	92	–
B1	–	–	–	–	Cell Binding anti-CD74 Bmax [3]: 3879; Kd [3]: 2.3 nM; Cell Binding anti-CD74 Bmax [4]: 119; Kd [4]: 3.6 nM; Cell Binding anti-CD74 Bmax [5]: 447; Kd [5]: 2.5 nM; Cell Binding anti-CD74 Bmax [6]: 3059; Kd [6]: 4.5 nM; Cell Binding anti-CD74 Bmax [7]: 1565; Kd [7]: 2 nM; Cell Binding anti-CD74 Bmax [8]: 190; Kd [8]: 2.6 nM; Cell Binding anti-CD74 Bmax [9]: 680; Kd [9]: 3.5 nM
